Measurements reported in publication PMC5073322, “Novel Natural Product-like Caged Xanthones Bearing a Carbamate Moiety Exhibit Antitumor Potency and Anti-Angiogenesis Activity In vivo” (Scientific Reports, 2016).
≈ marks a conversion by molar mass, not a printed value. Like-named read-outs stand apart in the source and are kept apart here.

Experiments:
Water solubility by HPLC = format: physicochemical; details: for solubility: thermodynamic from solid
Text: The physicochemical characteristics of compounds directly determine their potential drug-like properties. Assessing a compound’s physicochemical properties before performing in vivo evaluations can guide further studies and minimize the time and cost associated with drug discovery. Therefore, parallel to the in vivo study, these solubilities of these compounds in water were experimentally measured using high-performance liquid chromatography (HPLC). Based on the results of full wave scanning, 290 nm was chosen as the maximum absorption wavelength for HPLC detection.
(§1) A HPLC system with an ultraviolet (UV) detector was used to detect the solubility of the compounds. The optimal wavelength was 290 nm. Ethanol/water (85:15) was an efficient eluent at a flow rate of 0.5 mL/min. The compounds were stirred in deionized water overnight to maximize the retention of the compounds in solution. Then, the solutions were filtered and the supernatant was used as a fluid sample for HPLC detection. The permeability (Pe) of some of the compounds was tested with the help of a standard PAMPA (pION), as previously reported. PAMPA was performed on a PAMPA Explorer instrument (pION, Inc., Woburn, MA) with the PAMPA Explorer command software (Version 3.7.4.1). The compounds were diluted to 10 mM with the system solution buffer (pH 7.4). Then, 150 μL of the diluted compound solution was transferred to a UV plate, and the UV spectrum was collected and used as a reference. Then, paint the membrane with 5 μL of gastrointestinal tract (GIT) lipid. The acceptor chamber was filled with 200 μL of acceptor solution buffer, and the donor chamber was filled with 200 μL of diluted compound solution. The PAMPA sandwich was assembled and left at 25 °C for 4 h. The UV spectra (240–500 nm) from the donor and the acceptor were collected. The permeability coefficient was calculated with the PAMPA Explorer Command software (Version 3.7.4.1) based on the area under the curve (AUC) of the reference plate, the donor plate, and the acceptor plate. The permeability coefficient of the compound was tested for four times, and the data are shown as the average values. Ketoprofen (4.5×10^−6 cm/s) and propranolol (112.8×10^−6 cm/s) were used as the standards in this assay.

HepG2 = test: MTT antiproliferative assay, HepG2
Experimental: (§2) The inhibition of tumour cell growth was measured by a modified tetrazolium (MTT) salt assay, as previously described[39]. Cells were cultured in a 96-well plate and treated with culture medium alone or different concentrations of the compounds. The cells were incubated for 72 h, and then, the MTT assay reagent was added. After a 4 h incubation, the formazan product was quantitated at 570 nm. The IC50 values (the concentrations that gave rise to 50% inhibition of cell viability) were calculated using GraphPad Prism 6 using a variable slope (four parameters).

HCT116 = test: MTT antiproliferative assay, HCT116
Experimental: as §2

MDA-MB-231 = test: MTT antiproliferative assay, MDA-MB-231
Experimental: as §2

A549/taxol = test: MTT antiproliferative assay, Taxol-resistant A549; format: cell-based; details: 72 h, Taxol-resistant A549
Experimental: as §2

A549/cisplatin = test: MTT antiproliferative assay, cisplatin-resistant A549; format: cell-based
Experimental: as §2

A549 = test: MTT antiproliferative assay, A549
Experimental: as §2

[1] = Parallel artificial membrane permeability assay (PAMPA); format: in vitro ADME; details: PAMPA standards, 25 °C, 4 h
Experimental: Permeability is another important property that reflects the ability of molecules to diffuse through cell membranes. The permeability coefficients were determined using a standard parallel artificial membrane permeability assay (PAMPA) on a PAMPA Explorer instrument (Pion, Inc., MA, USA)[34].
as §1, with “The compounds were diluted to 10 mM with the system solution buffer (pH 7.4).” left out

[2] = deionized water, stirred overnight, HPLC 290 nm, read-out: S, water solubility
[3] = Homo sapiens, HepG2, 72 h, read-out: IC50 HepG2
[4] = Homo sapiens, HCT-116, 72 h, read-out: IC50 HCT116
[5] = Homo sapiens, MDA-MB-231, 72 h, read-out: IC50 MDA-MB-231
[6] = A549/Taxol, read-out: IC50 A549/taxol, MTT, 72 h
[7] = Homo sapiens, A549, 72 h, read-out: IC50 A549/cisplatin, MTT, 72 h
[8] = water, deionized water, stirred overnight, HPLC 290 nm, read-out: S, water solubility
[9] = Homo sapiens, A549, 72 h, read-out: IC50 A549, MTT, 72 h
[10] = Homo sapiens, HepG2, 72 h, read-out: IC50 HepG2, MTT, 72 h
[11] = Homo sapiens, HCT-116, 72 h, read-out: IC50 HCT116, MTT, 72 h
[12] = Homo sapiens, MDA-MB-231, 72 h, read-out: IC50 MDA-MB-231, MTT, 72 h
[13] = Homo sapiens, MTT, 72 h, read-out: IC50 A549/cisplatin
[14] = Homo sapiens, A549, 72 h, read-out: IC50 A549
[15] = read-out: IC50 A549/cisplatin, MTT, 72 h
[16] = deionized water, stirred overnight, HPLC 290 nm
[17] = read-out: IC50 HepG2, MTT, 72 h

## CC(C)=CCC12OC(C)(C)C3CC(C=C4C(=O)c5c(cccc5OS(C)(=O)=O)OC431)C2=O (stereo not drawn) [Compound 2]
Water solubility by HPLC; [2]
  solubility: 20 µM (≈ 9.17 µg/mL)
HepG2; [3]
  IC50: 1.41 ± 0.06 µM
HCT116; [4]
  IC50: 2.12 ± 0.14 µM
MDA-MB-231; [5]
  IC50: 2 ± 0.07 µM

## CCOC(=O)COc1cccc2c1C(=O)C1=CC3CC4C(C)(C)OC(CC=C(C)C)(C3=O)C14O2 (stereo not drawn) [Compound 4]
Water solubility by HPLC; [2]
  solubility: 10 µM (≈ 4.67 µg/mL)
HepG2; [3]
  IC50: 12.7 ± 0.97 µM
HCT116; [4]
  IC50: 8.13 ± 0.73 µM
MDA-MB-231; [5]
  IC50: 5.42 ± 0.57 µM

## CC(C)=CCC12OC(C)(C)C3CC(C=C4C(=O)c5c(OCC(=O)O)cccc5OC431)C2=O (stereo not drawn) [Compound 5]
Water solubility by HPLC; [2]
  solubility: 30 µM (≈ 13.2 µg/mL)
HepG2; [3]
  IC50: > 10 µM
HCT116; [4]
  IC50: > 10 µM
MDA-MB-231; [5]
  IC50: > 10 µM

## CC(C)=CCC12OC(C)(C)C3CC(C=C4C(=O)c5c(OC(=O)N(C)C)cccc5OC431)C2=O (stereo not drawn) [Compound 8a]
A549/taxol; [6]
  IC50: 0.65 ± 0.08 µM
A549/cisplatin; [7]
  IC50: 1.1 ± 0.1 µM
Water solubility by HPLC; [8]
  solubility: 60 µM (≈ 27.1 µg/mL)
A549; [9]
  IC50: 3.09 ± 0.14 µM
HepG2; [10]
  IC50: 1.73 ± 0.43 µM
HCT116; [11]
  IC50: 2.32 ± 0.21 µM
MDA-MB-231; [12]
  IC50: 0.17 ± 0.04 µM

## CCN(C)C(=O)Oc1cccc2c1C(=O)C1=CC3CC4C(C)(C)OC(CC=C(C)C)(C3=O)C14O2 (stereo not drawn) [Compound 8c]
A549/taxol; [6]
  IC50: 0.66 ± 0.16 µM
A549/cisplatin; [7]
  IC50: 1.48 ± 0.14 µM
Water solubility by HPLC; [8]
  solubility: 30 µM (≈ 14 µg/mL)
A549; [9]
  IC50: 3.05 ± 0.58 µM
HepG2; [10]
  IC50: 2.56 ± 0.19 µM
HCT116; [11]
  IC50: 2.75 ± 0.14 µM
MDA-MB-231; [12]
  IC50: 0.25 ± 0.12 µM

## CC(C)=CCC12OC(C)(C)C3CC(C=C4C(=O)c5c(OC(=O)N6CCCC6)cccc5OC431)C2=O (stereo not drawn) [Compound 8e]
A549/taxol; MTT, read-out: IC50 A549/taxol
  IC50: 12.4 ± 0.29 µM
A549/cisplatin; [13]
  IC50: 5.68 ± 0.15 µM
Water solubility by HPLC; [2]
  solubility: 40 µM (≈ 19.1 µg/mL)
A549; [14]
  IC50: 8.63 ± 0.19 µM
HepG2; [3]
  IC50: 0.99 ± 0.01 µM
HCT116; [4]
  IC50: 1.06 ± 0.09 µM
MDA-MB-231; [5]
  IC50: 4.4 ± 1.5 µM

## CC(C)=CCC12OC(C)(C)C3CC(C=C4C(=O)c5c(OC(=O)N6CCCCC6)cccc5OC431)C2=O (stereo not drawn) [Compound 8f]
A549/taxol; MTT, read-out: IC50 A549/taxol
  IC50: 1.45 ± 0.18 µM
A549/cisplatin; [13]
  IC50: 2.98 ± 0.17 µM
Water solubility by HPLC; [2]
  solubility: 50 µM (≈ 24.6 µg/mL)
A549; [14]
  IC50: 2.93 ± 0.02 µM
HepG2; [3]
  IC50: 0.95 ± 0.09 µM
HCT116; [4]
  IC50: 1.02 ± 0.07 µM
MDA-MB-231; [5]
  IC50: 0.87 ± 0.16 µM

## CC(C)=CCC12OC(C)(C)C3CC(C=C4C(=O)c5c(OC(=O)N6CC=CC6)cccc5OC431)C2=O (stereo not drawn) [Compound 8h]
A549/taxol; MTT, read-out: IC50 A549/taxol
  IC50: 1.1 ± 0.16 µM
A549/cisplatin; [13]
  IC50: 6.7 ± 0.18 µM
Water solubility by HPLC; [2]
  solubility: 20 µM (≈ 9.51 µg/mL)
A549; [14]
  IC50: 8.45 ± 0.2 µM
HepG2; [3]
  IC50: 1.75 ± 0.28 µM
HCT116; [4]
  IC50: 3.15 ± 0.22 µM
MDA-MB-231; [5]
  IC50: 6.8 ± 0.7 µM

## CC(C)=CCC12OC(C)(C)C3CC(C=C4C(=O)c5c(OC(=O)N(CCO)CCO)cccc5OC431)C2=O (stereo not drawn) [Compound 8j]
A549/taxol; MTT, read-out: IC50 A549/taxol
  IC50: 4.25 ± 0.7 µM
A549/cisplatin; [13]
  IC50: 3.78 ± 0.11 µM
Water solubility by HPLC; [2]
  solubility: 60 µM (≈ 30.7 µg/mL)
A549; [14]
  IC50: 10.24 ± 0.1 µM
HepG2; [3]
  IC50: 5.21 ± 0.01 µM
HCT116; [4]
  IC50: 4.14 ± 0.05 µM
MDA-MB-231; [5]
  IC50: 6.2 ± 0.11 µM

## CC(C)=CCC12OC(C)(C)C3CC(C=C4C(=O)c5c(OC(=O)N(C(C)C)C(C)C)cccc5OC431)C2=O (stereo not drawn) [Compound 8k]
A549/taxol; MTT, read-out: IC50 A549/taxol
  IC50: 6.72 ± 0.53 µM
A549/cisplatin; [13]
  IC50: 2 ± 0.47 µM
Water solubility by HPLC; [2]
  solubility: 30 µM (≈ 15.2 µg/mL)
A549; [14]
  IC50: 8.96 ± 0.9 µM
HepG2; [3]
  IC50: 4.76 ± 0.22 µM
HCT116; [4]
  IC50: 4.49 ± 0.77 µM
MDA-MB-231; [5]
  IC50: 9.1 ± 0.12 µM

## CC(C)=CCC12OC(C)(C)C3CC(C=C4C(=O)c5c(OC(=O)N6CCN(C)CC6)cccc5OC431)C2=O (stereo not drawn) [Compound 8m]
A549/taxol; read-out: IC50 A549/taxol, MTT
  IC50: 1.1 ± 0.05 µM
A549/cisplatin; [15]
  IC50: 0.38 ± 0.07 µM
Water solubility by HPLC; [16]
  S, water solubility: 640 µM
A549; [9]
  IC50: 9.97 ± 2.46 µM
HepG2; [17]
  IC50: 1.36 ± 0.71 µM
HCT116; [11]
  IC50: 8.15 ± 0.7 µM
MDA-MB-231; [12]
  IC50: 0.76 ± 0.09 µM

## CC(C)=CCC12OC(C)(C)C3CC(C=C4C(=O)c5c(OC(=O)N6CCN(C)CC6)cccc5OC431)C2=O (stereo not drawn) [Compound 8o]
A549/taxol; read-out: IC50 A549/taxol, MTT
  IC50: 0.51 ± 0.05 µM
A549/cisplatin; [15]
  IC50: 1.14 ± 0.14 µM
Water solubility by HPLC; [16]
  S, water solubility: >40000 µM
A549; read-out: IC50 A549, MTT, 72 h
  IC50: 14.9 ± 3.6 µM
HepG2; [17]
  IC50: 2.8 ± 0.21 µM
HCT116; read-out: IC50 HCT116, MTT, 72 h
  IC50: 9.82 ± 0.68 µM
MDA-MB-231; read-out: IC50 MDA-MB-231, MTT, 72 h
  IC50: 0.66 ± 0.07 µM

## COc1cccc2c1C(=O)c1c(O)c3c(c(O)c1C2=O)C[C@@](O)(C(=O)CO)C[C@@H]3O[C@H]1C[C@H](N)[C@H](O)[C@H](C)O1 [Doxorubicin, reference compound]
A549/taxol; MTT, read-out: IC50 A549/taxol
  IC50: 0.24 ± 0.02 µM
A549/cisplatin; [13]
  IC50: 0.19 ± 0.02 µM
A549; [14]
  IC50: 0.17 ± 0.02 µM
HepG2; [3]
  IC50: 0.28 ± 0.01 µM
HCT116; [4]
  IC50: 0.4 ± 0.04 µM
MDA-MB-231; [5]
  IC50: 0.49 ± 0.05 µM

## CC(C)=CCC[C@]1(C)C=Cc2c(O)c3c(c(CC=C(C)C)c2O1)O[C@]12C(=C[C@@H]4C[C@H]1C(C)(C)O[C@@]2(C/C=C(/C)C(=O)O)C4=O)C3=O [GA, gambogic acid, reference compound]
A549/taxol; MTT, read-out: IC50 A549/taxol
  IC50: 0.29 ± 0.04 µM
A549/cisplatin; [13]
  IC50: 2.5 ± 0.06 µM
Water solubility by HPLC; water
  solubility: < 5 µM
A549; [14]
  IC50: 2.02 ± 0.02 µM
HepG2; [3]
  IC50: 2.08 ± 0.07 µM
HCT116; [4]
  IC50: 0.34 ± 0.08 µM
MDA-MB-231; [5]
  IC50: 1.5 ± 0.05 µM

## CC(C(=O)O)c1cccc(C(=O)c2ccccc2)c1 (stereo not drawn) [Ketoprofen, reference compound]
[1]
  permeability coefficient (Pe): 4.5 ×10⁻⁶ cm/s

## CC(C)NCC(O)COc1cccc2ccccc12 (stereo not drawn) [propranolol, reference compound]
[1]
  permeability coefficient (Pe): 112.8 ×10⁻⁶ cm/s
